A word on the IC50: it is the concentration needed to halve the response being measured. Lower therefore signals greater potency.

Data set [1] is described as follows: Evaluation of total body clearance (CLtot), intravenous administration. It is filed as in vivo, Sprague-Dawley (SD). The settings on record: rat (SD), intravenous administration 0.5-10 mg/kg; CLtot = dose/AUC. In outline:
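Plasma levels quantified by LC/MS/MS after intravenous tail-vein dosing (0.5-10 mg/kg, compound-dependent; n=2-3). AUC from pharmacokinetic analysis; total clearance calculated as dose/AUC.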

Another data set deals with HIV-1 PR (Human immunodeficiency virus type 1 group M subtype B, UniProt P04585). Kind of data set: HIV-protease inhibitory activity assay (FRET peptide substrate). To be noted: Test Example 1. It is filed as biochemical. In outline:
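HIV-1 PR (0.83 ng) preincubated with compounds 20 min at room temperature in 0.1 mol/L NaAc, 0.5 mol/L NaCl, 1 mmol/L EDTA, 1 mmol/L DTT, 0.05% Tween 20, pH 4.8. Cleavage of HiLyte Fluor 488/QXL 520 FRET peptide (2 μmol/L) read after 60 minutes at 485/535 nm; IC50 from four-parameter logistic fit.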

Each structure is given as a SMILES string.

Turning to `COc1ccc(S(=O)(=O)N(CC(C)C)CC(O)C(Cc2ccc(N3CCC(Oc4cc(C(F)(F)F)ccc4-c4sc5c(c4C(=O)O)CC(C)(C)CC5)C3)cc2)NC(=O)OC2COC3(C)OCCC23)cc1` (stereo not shown) [Compound I-579], in data set [1], the rat_CLt is on record as 1.66 mL/min/kg. The same compound displayed an IC50 on HIV-1 PR of 4.38 nM.

The compound `COc1ccc(S(=O)(=O)N(CC(C)C)CC(O)C(Cc2ccc(NCc3ccc(OC)cc3C(=O)Nc3sc4c(c3C(=O)O)CC(C)(C)CC4)cc2)NC(=O)OC2COC3(C)OCCC23)cc1` (stereo not shown) [Compound I-580] showed a rat_CLt in data set [1] of 0.0683 mL/min/kg. The same compound displayed an IC50 against HIV-1 PR of 3.23 nM.

Consider `COc1ccc(S(=O)(=O)N(CC(C)C)CC(O)C(Cc2ccc(NCc3cc4ccccc4cc3-c3sc4c(c3C(=O)O)CC(C)(C)CC4)cc2)NC(=O)OC2COC3(C)OCCC23)cc1` (stereo not shown) [Compound I-581], for which, in data set [1], the rat_CLt came out at 0.204 mL/min/kg. This compound also displayed an IC50 at HIV-1 PR of 4.02 nM.

With `COc1ccc(S(=O)(=O)N(CC(C)C)CC(O)C(Cc2ccc(N(C)Cc3cc4ccccc4cc3-c3sc4c(c3C(=O)O)CC(C)(C)CC4)cc2)NC(=O)OC2COC3(C)OCCC23)cc1` (stereo not shown) [Compound I-582], in data set [1], the rat_CLt is 0.179 mL/min/kg. The IC50 against HIV-1 PR is 9.36 nM.

In data set [1], `COc1ccc(S(=O)(=O)N(CC(C)C)CC(O)C(Cc2ccc(N(C)Cc3cc(N4CCCC4=O)ccc3-c3sc4c(c3C(=O)O)CC(C)(C)CC4)cc2)NC(=O)OC2COC3(C)OCCC23)cc1` (stereo not shown) [Compound I-584] had a rat_CLt of 0.77 mL/min/kg. The IC50 on HIV-1 PR was determined as 2.3 nM.

The compound `COc1ccc(S(=O)(=O)N(CC(C)C)CC(O)C(Cc2ccc(N3CCC(Oc4ccccc4C(=O)Nc4sc5c(c4C(=O)O)CC(C)(C)CC5)C3)cc2)NC(=O)OC2COC3(C)OCCC23)cc1` (stereo not shown) [Compound I-588] registered a rat_CLt in data set [1] of 0.291 mL/min/kg. The compound further yielded an IC50 at HIV-1 PR of 3.29 nM.

Turning to `COc1ccc(S(=O)(=O)N(CC(C)C)CC(O)C(Cc2ccc(NCC3=C(C(=O)Nc4sc5c(c4C(=O)O)CC(C)(C)CC5)CCC3)cc2)NC(=O)OC2COC3(C)OCCC23)cc1` (stereo not shown) [Compound I-589], the rat_CLt in data set [1] worked out at 0.311 mL/min/kg. Besides, on HIV-1 PR, the IC50 was 3.48 nM.

Turning to `COc1ccc(S(=O)(=O)N(CC(C)C)C[C@@H](O)[C@H](Cc2ccc(N3CC[C@H](Oc4ccccc4-n4nc5c(c4C(=O)O)CC(C)(C)CC5)C3)cc2)NC(=O)O[C@H]2CO[C@@]3(C)OCC[C@@H]23)cc1` [Compound I-596], the rat_CLt in data set [1] was 0.213 mL/min/kg. The compound further had an IC50 at HIV-1 PR of 1.54 nM.

In the case of `COc1ccc(S(=O)(=O)N(CC(C)C)CC(O)C(Cc2ccc(NCc3cccc(C)c3-c3sc4c(c3C(=O)O)CC(C)(C)CC4)cc2)NC(=O)OC2COC3(C)OCCC23)cc1` (stereo not shown) [Compound I-598], the rat_CLt in data set [1] worked out at 0.532 mL/min/kg. At HIV-1 PR, this compound showed an IC50 of 2.12 nM.

Compound `COc1ccc(S(=O)(=O)N(CC(C)C)CC(O)C(Cc2ccc(N(C)Cc3cccc(C)c3-c3sc4c(c3C(=O)O)CC(C)(C)CC4)cc2)NC(=O)OC2COC3(C)OCCC23)cc1` (stereo not shown) [Compound I-599] showed a rat_CLt in data set [1] of 0.479 mL/min/kg. The compound also came in with an IC50 against HIV-1 PR of 2.46 nM.

`CC1(C)CCc2sc(NC(=O)c3ccccc3CNc3ccc(CC(NC(=O)OC4COC5(C)OCCC45)C(O)CN(CC4CCCC4)S(=O)(=O)c4ccc5c(c4)OCO5)cc3)c(C(=O)O)c2C1` (stereo not shown) [Compound I-600] came in with a rat_CLt in data set [1] of 0.104 mL/min/kg. Moreover, on HIV-1 PR, it took 5.07 nM to reach half-maximal inhibition (IC50).

Compound `CC1(C)CCc2sc(NC(=O)c3ccccc3CNc3ccc(CC(NC(=O)OC4COC5(C)OCCC45)C(O)CN(CC4CCCC4)S(=O)(=O)c4ccc5ncsc5c4)cc3)c(C(=O)O)c2C1` (stereo not shown) [Compound I-601] yielded a rat_CLt in data set [1] of 0.164 mL/min/kg. On HIV-1 PR, this compound came in with an IC50 of 3.26 nM.

With `COc1ccc(S(=O)(=O)N(CC2CCC2)CC(O)C(Cc2ccc(NCc3ccccc3C(=O)Nc3sc4c(c3C(=O)O)CC(C)(C)CC4)cc2)NC(=O)OC2COC3(C)OCCC23)cc1` (stereo not shown) [Compound I-602], in data set [1], the rat_CLt is listed as 0.0667 mL/min/kg. Also, on HIV-1 PR, the IC50 was 3.67 nM.

Regarding `COc1ccc(S(=O)(=O)N(CC(C)C)CC(O)C(Cc2ccc(NC(C)c3ccccc3-c3sc4c(c3C(=O)O)CC(C)(C)CC4)cc2)NC(=O)OC2COC3(C)OCCC23)cc1` (stereo not shown) [Compound I-603], in data set [1], the rat_CLt stood at 5.83 mL/min/kg. Moreover, the midpoint of inhibition on HIV-1 PR, the IC50, lay at 3.65 nM.

(Values after patent US20170253607A1, “LONG-ACTING HIV PROTEASE INHIBITOR” (Shionogi & Co., Ltd., priority 2014, published 2017).)
